Measured values published in patent publication US20260265244A1, “HETEROCYCLIC COMPOUNDS AS STING ANTAGONISTS” (Boehringer Ingelheim International GmbH, priority 2022, published 2026).

Target: T1, cGAMP binding domain of wild-type (GRR) human STING, residues 155-341 (Homo sapiens, UniProt Q86WV6, H232R)
T1 construct: His-TEV-hSTING (WT); TEV protease cleavage site (N); made in house; host or cells: E. coli BL21 DE3
Assay: Increase of stability of STING protein against thermal denaturation, Differential Scanning Fluorimetry (DSF)
Summary of the method: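 3 µM His-tagged protein with 100 uM compound, 5×SYPRO Orange, 2% DMSO in 20 mM Tris, 150 mM NaCl, pH7.5; 15–95 °C ramp in 0.5 °C steps (15 s/cycle). Tm from Boltzmann fit of the dye melt curve, duplicates averaged, repeated if SD>1.5 °C; ΔTm = Tm with compound minus Tm of protein alone.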

T1 sequence (Q86WV6 with tags, fused parts or gaps H232R): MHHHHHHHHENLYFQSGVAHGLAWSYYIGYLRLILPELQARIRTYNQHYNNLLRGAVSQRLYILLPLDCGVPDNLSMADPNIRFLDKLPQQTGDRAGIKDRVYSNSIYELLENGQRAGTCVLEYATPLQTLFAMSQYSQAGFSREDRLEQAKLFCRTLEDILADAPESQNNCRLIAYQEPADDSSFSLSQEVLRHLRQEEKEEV

Row | DSF [K] | Structure (SMILES)
1 | 30 | CCc1nc2nn(C)cc2cc1-c1nc(-c2cccc3nn(C[C@H](F)c4ccc(Cl)cc4)cc23)c(C2CC2)n1C [Example 72, 2-[(2R)-2-(4-chlorophenyl)-2-fluoroethyl]-4-(5-cyclopropyl-2-{6-ethyl-2-methyl-2H-pyrazolo[3,4-b]pyridin-5-yl}-1-methyl-1H-imidazol-4-yl)-2H-indazole]
2 | 28 | Cc1c(C(C)C)c(-c2cccc3nn(C[C@H](O)c4ccccc4)cc23)nn1-c1cc2cn(C)nc2nc1C1CCOCC1 [Example 73, (1R)-2-(4-{5-methyl-1-[2-methyl-6-(oxan-4-yl)-2H-pyrazolo[3,4-b]pyridin-5-yl]-4-(propan-2-yl)-1H-pyrazol-3-yl}-2H-indazol-2-yl)-1-phenylethan-1-ol]
3 | 29 | CC(C)c1nc2nn(C)cc2cc1-c1nc(-c2cccc3nn(CS(=O)(=O)c4ccccc4)cc23)c(C2CC2)n1C [Example 96, 2-[(Benzenesulfonyl)methyl]-4-{5-cyclopropyl-1-methyl-2-[2-methyl-6-(propan-2-yl)-2H-pyrazolo[3,4-b]pyridin-5-yl]-1H-imidazol-4-yl}-2H-indazole]
4 | 31 | CC(C)c1nc2nn(C)cc2cc1-c1nc(-c2cccc3nn(C[C@H](O)c4ccccc4)cc23)c(C2CC2)n1C [Example 97, (1R)-2-(4-{5-Cyclopropyl-1-methyl-2-[2-methyl-6-(propan-2-yl)-2H-pyrazolo[3,4-b]pyridin-5-yl]-1H-imidazol-4-yl}-2H-indazol-2-yl)-1-phenylethan-1-ol]
5 | 29 | Cc1nc2nn(CC#N)cc2cc1-n1nc(-c2cccc3nn(C[C@H](O)c4ccccc4)cc23)c(C(C)C)c1C [Example 98, 2-[5-(3-{2-[(2R)-2-hydroxy-2-phenylethyl]-2H-indazol-4-yl}-5-methyl-4-(propan-2-yl)-1H-pyrazol-1-yl)-6-methyl-2H-pyrazolo[3,4-b]pyridin-2-yl]acetonitrile]
6 | 28 | CCn1cc2cc(-n3nc(-c4cccc5nn(C[C@H](O)c6ccccc6)cc45)c(C(C)C)c3C)c(C)nc2n1 [Example 100, (1R)-2-[4-(1-{2-ethyl-6-methyl-2H-pyrazolo[3,4-b]pyridin-5-yl}-5-methyl-4-(propan-2-yl)-1H-pyrazol-3-yl)-2H-indazol-2-yl]-1-phenylethan-1-ol]
7 | 30 | Cc1c(C(C)C)c(-c2cccc3nn(C[C@H](O)c4ccc(OCCN(C)C)cc4)cc23)nn1-c1cc2cn(C)nc2nc1C1CC1 [Example 101]
8 | 28 | Cc1nc2nn(C)cc2cc1-n1nc(-c2cccc3nn(C[C@H](O)c4ccccc4)cc23)c(C(C)C)c1C [Example 102, (1R)-2-[4-(1-{2,6-Dimethyl-2H-pyrazolo[3,4-b]pyridin-5-yl}-5-methyl-4-(propan-2-yl)-1H-pyrazol-3-yl)-2H-indazol-2-yl]-1-phenylethan-1-ol]
9 | 29 | Cc1nc2nn(CC(F)F)cc2cc1-n1nc(-c2cccc3nn(C[C@H](O)c4ccccc4)cc23)c(C(C)C)c1C [Example 103, (1R)-2-(4-{1-[2-(2,2-difluoroethyl)-6-methyl-2H-pyrazolo[3,4-b]pyridin-5-yl]-5-methyl-4-(propan-2-yl)-1H-pyrazol-3-yl}-2H-indazol-2-yl)-1-phenylethan-1-ol]
10 | 31 | Cn1c(-c2cc3cn(CCC#N)nc3nc2C2CC2)nc(-c2cccc3nn(C[C@H](O)c4ccccc4)cc23)c1C1CC1 [Example 104, 3-[6-cyclopropyl-5-(5-cyclopropyl-4-{2-[(2R)-2-hydroxy-2-phenylethyl]-2H-indazol-4-yl}-1-methyl-1H-imidazol-2-yl)-2H-pyrazolo[3,4-b]pyridin-2-yl]propanenitrile]
11 | 24 | Cc1nc2cc(C)c(-n3nc(-c4cccc5nn(C[C@H](O)c6ccccc6)cc45)c(C(C)C)c3C)cc2[nH]1 [Example 105, (1R)-2-{4-[1-(2,5-dimethyl-1H-1,3-benzodiazol-6-yl)-5-methyl-4-(propan-2-yl)-1H-pyrazol-3-yl]-2H-indazol-2-yl}-1-phenylethan-1-ol]
12 | 28 | Cc1c(C(C)C)c(-c2cccc3nn(C[C@H](O)c4ccccc4)cc23)nn1-c1cc2cn(C)nc2nc1CO [Example 106, (1R)-2-(4-{1-[6-(hydroxymethyl)-2-methyl-2H-pyrazolo[3,4-b]pyridin-5-yl]-5-methyl-4-(propan-2-yl)-1H-pyrazol-3-yl}-2H-indazol-2-yl)-1-phenylethan-1-ol]
13 | 31 | CCc1nc2nn(C)cc2cc1-c1nc(-c2cccc3nn(C[C@H](F)c4ccccc4)cc23)c(C2CC2)n1C [Example 107, 4-(5-cyclopropyl-2-{6-ethyl-2-methyl-2H-pyrazolo[3,4-b]pyridin-5-yl}-1-methyl-1H-imidazol-4-yl)-2-[(2R)-2-fluoro-2-phenylethyl]-2H-indazole]
14 | 27 | Cc1nc2nn(C)cc2cc1-n1nc(-c2cccc3nn(C[C@H](OCC(N)=O)c4ccccc4)cc23)c(C(C)C)c1C [Example 108, 2-[(1R) -2-[4-(1-{2,6-dimethyl-2H-pyrazolo[3,4-b]pyridin-5-yl}-5-methyl-4-(propan-2-yl)-1H-pyrazol-3-yl)-2H-indazol-2-yl]-1-phenylethoxy]acetamide]
15 | 27 | CC(C)c1c(-c2cccc3nn(C[C@H](O)c4ccccc4)cc23)nc(-c2cc3cn(C)nc3cc2OC(F)(F)F)n1C [Example 109, (1R)-2-(4-{1-methyl-2-[2-methyl-6-(trifluoromethoxy)-2H-indazol-5-yl]-5-(propan-2-yl)-1H-imidazol-4-yl}-2H-indazol-2-yl)-1-phenylethan-1-ol]
16 | 29 | Cn1cc2cc(-c3nc(-c4cccc5nn(C[C@H](O)c6ccccc6)cc45)c(C4CC4)n3C)c(C3CC3(F)F)nc2n1 (stereo partly drawn) [Example 110, (1R)-2-(4-{5-cyclopropyl-2-[6-(2,2-difluorocyclopropyl)-2-methyl-2H-pyrazolo[3,4-b]pyridin-5-yl]-1-methyl-1H-imidazol-4-yl}-2H-indazol-2-yl)-1-phenylethan-1-ol]
17 | 24 | Cc1c(C(C)C)c(-c2cccc3nn(C[C@H](O)c4ccccc4)cc23)nn1-c1cc2cn(C)nc2nc1C1CCCN1 (stereo partly drawn) [Example 111, (1R)-2-(4-{5-Methyl-1-[2-methyl-6-(pyrrolidin-2-yl)-2H-pyrazolo[3,4-b]pyridin-5-yl]-4-(propan-2-yl)-1H-pyrazol-3-yl}-2H-indazol-2-yl)-1-phenylethan-1-ol]
18 | 23 | Cc1c(C(C)C)c(-c2cccc3nn(C[C@H](O)c4ccccc4)cc23)nn1-c1cc2cn(C)nc2nc1CN(C)C [Example 112]
19 | 23 | Cc1c(C(C)C)c(-c2cccc3nn(C[C@H](O)c4ccccc4)cc23)nn1-c1cc2cn(C)nc2nc1C(C)(C)C [Example 113, (1R)-2-[4-(1-{6-tert-butyl-2-methyl-2H-pyrazolo[3,4-b]pyridin-5-yl}-5-methyl-4-(propan-2-yl)-1 H-pyrazol-3-yl)-2H-indazol-2-yl]-1-phenylethan-1-ol]
